{"source": "patent US4933348A", "about": "“Heterocyclic compounds” (priority 1985, dated 1990)", "key": {"[1]": {"system": "LTD4-induced contraction of guinea-pig trachea", "experiment": "Inhibition of LTD4-induced contraction of isolated guinea-pig trachea", "set-up": "species or system guinea-pig (male Hartley)", "conditions": "10^-8 M LTD4; for inhibition of the contractions induced by LTD4 (in words): isolated guinea pig trachea; for IC50: isolated guinea-pig trachea, incubation 20 minutes, 37° C., read-out: IC 50 (M), Trachea, Anti-LTD4", "protocol": "(§1) (1) Inhibition of SRS-A- and LTD4 -induced contraction of guinea-pig ileum and trachea\n(§2) Methods: Male Hartley guinea-pigs, weighing 500 to 700 g were sacrificed by a blow on the head The ileum and tracheal strips prepared according to the method of Constantine (Constantine, J. W., J. Pharm Pharmacol., 17, 384 (1965)) were suspended with 1.0 g tension in an organ bath containing 10 ml of Tyrode solution equilibrated with a mixture of 95% O2 and 5% CO2 at 37° C. The tissues were equilibrated for 60 minutes; during this period the Tyrode solution was replaced every 15 minutes and the loading tension was adjusted to 1.0 g. The developed tension of the tissues was measured isometrically with a strain gauge transducer, and recorded on a Recticorder. Both the contractile response of the ileum to submaximal concentration of SRS-A (derived from guinea pig lung) and tracheal response to 10^-8 M LTD4 were recorded in the absence and then in the presence of various concentrations of test compounds. The incubation time of the compounds was 20 minutes."}, "[2]": {"system": "SRS-A-induced contraction of guinea-pig ileum", "experiment": "Inhibition of SRS-A-induced contraction of isolated guinea-pig ileum", "set-up": "species or system guinea-pig (male Hartley)", "conditions": "submaximal concentration of SRS-A (derived from guinea pig lung), incubation 20 minutes, 37° C., read-out: IC 50 (M), Ileum, Anti-SRS-A", "protocol": "as §1, §2"}, "[3]": {"system": "LTD4-enhanced vascular permeability", "experiment": "Inhibition of LTD4-enhanced vascular permeability in guinea-pig", "type": "in vivo, guinea-pig (male Hartley)", "conditions": "for ED50: Cavia porcellus, po, 30 minutes before LTD4 injection (5 ng intradermal); for anti-leukotriene effect by oral route (in words) / inhibition of LTD4-enhanced vascular permeability (in words): p.o.; for inhibition of LTD4-enhanced vascular permeability (in words): 30 minutes before LTD4 injection", "protocol": "(2) Inhibition of LTD4 -enhanced vascular permeability in guinea-pig\nMethod: Male Hartley quinea-pigs weighing 270 to 305 g, starved for 16 hours, were intradermally injected 5 ng LTD4 in a volume of 0.1 ml into two sites on the shaved back. In addition, 0.1 ml of vehicle was injected intradermally in each animal to see non-specific irritation. One ml of saline containing 1% Evans blue was intravenously injected 2 minutes before LTD4 injection. Animals were sacrificed 30 minutes after LTD4 injection. The leaked dye at the site of LTD4 or vehicle injection was extracted according to the method of Harada et al. (Harada, M. et al., J. Pharm. Pharmacol., 23, 218 (1971)) and measured photometrically at 620 nm. The LTD4 -induced skin reaction was expressed as a difference in the amount of dye between LTD4 and vehicle. Test compounds were orally administered 30 minutes before LTD4 injection."}}, "data": [{"smiles": "CCCc1c(CSc2nnc(SCC(=O)O)s2)ccc(C(C)=O)c1O", "note": "[Example 2, [[5-[(4-acetyl-3-hydroxy-2-propylbenzyl)thio]-1,3,4-thiadiazol-2-yl]thio]-acetic acid]", "values": [{"measurement": "inhibition of the contractions induced by LTD4 (in words)", "setting": "[1]", "value": "potently inhibited"}, {"measurement": "IC50", "setting": "[1]", "value": "4e-08", "unit": "M"}, {"measurement": "IC50", "setting": "[2]", "value": "4.2e-08", "unit": "M"}, {"measurement": "ED50", "setting": "[3]", "value": 11.3, "unit": "mg/kg"}, {"measurement": "anti-leukotriene effect by oral route (in words)", "setting": "[3]", "value": "potent anti-leukotriene effect"}, {"measurement": "inhibition of LTD4-enhanced vascular permeability (in words)", "setting": "[3]", "value": "dose-dependently inhibited"}]}, {"smiles": "CCCc1c(CSc2nnc(SCCCC(=O)O)s2)ccc(C(C)=O)c1O", "note": "[Example 4, 4-[[5-[(4-acetyl-3-hydroxy-2-propylbenzyl)thio]-1,3,4-thiadiazol-2-yl]thio]butyric acid]", "values": [{"measurement": "IC50", "setting": "[2]", "value": "4.1e-09", "unit": "M"}]}, {"smiles": "CCCc1c(CSc2nnc(SCCCCCC(=O)OCC)s2)ccc(C(C)=O)c1O", "note": "[Example 10, ethyl 6-[[5-[(4-acetyl-3-hydroxy-2-propylbenzyl)thio]-1,3,4-thiadiazol-2-yl]thio]hexanate]", "values": [{"measurement": "IC50", "setting": "[2]", "value": "5.1e-08", "unit": "M"}]}, {"smiles": "CCCc1c(CSc2nnc(SCCCCC(=O)O)s2)ccc(C(C)=O)c1O", "note": "[Example 11, 5-[[5-[(4-acetyl-3-hydroxy-2-propylbenzyl)thio]-1,3,4-thiadiazol-2-yl]thio]valeric acid]", "values": [{"measurement": "IC50", "setting": "[2]", "value": "9.1e-09", "unit": "M"}]}, {"smiles": "CCCc1c(CSc2nnc(SCCCCCC(=O)O)s2)ccc(C(C)=O)c1O", "note": "[Example 12, 6-[[5-[(4-acetyl-3-hydroxy-2-propylbenzyl)thio]-1,3,4-thiadiazol-2-yl]thio]hexanoic acid]", "values": [{"measurement": "IC50", "setting": "[2]", "value": "4e-09", "unit": "M"}]}, {"smiles": "CCCc1c(CSc2nnc(SCCCCCCC(=O)O)s2)ccc(C(C)=O)c1O", "note": "[Example 13, 7-[[5-[(4-acetyl-3-hydroxy-2-propylbenzyl)thio]-1,3,4-thiadiazol-2-yl]thio]heptanoic acid]", "values": [{"measurement": "IC50", "setting": "[2]", "value": "2.1e-08", "unit": "M"}]}, {"smiles": "CCCc1c(CSc2nccc(O)n2)ccc(C(C)=O)c1O", "note": "[Example 14, 2-[(4-acetyl-3-hydroxy-2-propylbenzyl)thio]-4-hydroxypyrimidine]", "values": [{"measurement": "IC50", "setting": "[2]", "value": "5e-08", "unit": "M"}]}, {"smiles": "CCCc1c(CSc2nnc(NC(=O)C(=O)O)s2)ccc(C(C)=O)c1O", "note": "[Example 22, [5-[(4-acetyl-3-hydroxy-2-propylbenzyl)thio]-1,3,4-thiadiazol-2-yl]oxamidic acid]", "values": [{"measurement": "IC50", "setting": "[2]", "value": "2.2e-08", "unit": "M"}]}, {"smiles": "CCCc1c(CSc2nnc(NC(=O)CCC(=O)O)s2)ccc(C(C)=O)c1O", "note": "[Example 24, 4-[[5-[(4-acetyl-3-hydroxy-2-propylbenzyl)thio]-1,3,4-thiadiazol-2-yl]amino]-4-oxobutyric acid]", "values": [{"measurement": "IC50", "setting": "[2]", "value": "3.3e-09", "unit": "M"}]}, {"smiles": "CCCc1c(CSc2nnc(SCCCSCC(=O)O)s2)ccc(C(C)=O)c1O", "note": "[Example 32, [[3-[[5-[(4-acetyl-3-hydroxy-2-propylbenzyl)thio]-1,3,4-thiadiazol-2-yl]thio]propyl]thio]acetic acid]", "values": [{"measurement": "inhibition of the contractions induced by LTD4 (in words)", "setting": "[1]", "value": "potently inhibited"}, {"measurement": "IC50", "setting": "[1]", "value": "3e-09", "unit": "M"}, {"measurement": "IC50", "setting": "[2]", "value": "1.5e-10", "unit": "M"}]}, {"smiles": "CCCc1c(CSc2nnc(SCc3ccc(OCC(=O)O)cc3)s2)ccc(C(C)=O)c1O", "note": "[Example 33, [p-[[[5-[(4-acetyl-3-hydroxy-2-propylbenzyl)thio]-1,3,4-thiadiazol-2-yl]thio]methyl]phenoxy]acetic acid]", "values": [{"measurement": "inhibition of the contractions induced by LTD4 (in words)", "setting": "[1]", "value": "potently inhibited"}, {"measurement": "IC50", "setting": "[1]", "value": "5.4e-08", "unit": "M"}, {"measurement": "IC50", "setting": "[2]", "value": "2.9e-10", "unit": "M"}]}, {"smiles": "CCCc1c(CSc2nnc(SCc3ccc(OC(C)C(=O)O)cc3)s2)ccc(C(C)=O)c1O", "note": "(stereo not shown) [Example 34, 2-[p-[[[5-[(4-acetyl-3-hydroxy-2-propylbenzyl)thio]-1,3,4-thiadiazol-2-yl]thio]methyl]phenoxy]propionic acid]", "values": [{"measurement": "ED50", "setting": "[3]", "value": 4.2, "unit": "mg/kg"}]}, {"smiles": "CCCc1c(CSc2nnc(SCCC[S+]([O-])CC(=O)O)s2)ccc(C(C)=O)c1O", "note": "(stereo not shown) [Example 35, [3-[[5-[(4-acetyl-3-hydroxy-2-propylbenzyl)thio]-1,3,4-thiadiazol-2-yl]thio]propylsulfinyl]acetic acid]", "values": [{"measurement": "inhibition of the contractions induced by LTD4 (in words)", "setting": "[1]", "value": "potently inhibited"}, {"measurement": "IC50", "setting": "[1]", "value": "7.8e-09", "unit": "M"}, {"measurement": "IC50", "setting": "[2]", "value": "1.1e-08", "unit": "M"}]}, {"smiles": "CCCc1c(CSc2nnc(SCCCS(=O)(=O)CC(=O)O)s2)ccc(C(C)=O)c1O", "note": "[Example 36, [3-[[5-[(4-acetyl-3-hydroxy-2-propylbenzyl)thio]-1,3,4-thiadiazol-2-yl]thio]propylsulfonyl]acetic acid]", "values": [{"measurement": "inhibition of the contractions induced by LTD4 (in words)", "setting": "[1]", "value": "potently inhibited"}, {"measurement": "IC50", "setting": "[1]", "value": "2.9e-09", "unit": "M"}, {"measurement": "IC50", "setting": "[2]", "value": "1.1e-09", "unit": "M"}]}, {"smiles": "CCCc1c(CSc2nnc(SCc3ccc(C(=O)O)cc3)s2)ccc(C(C)=O)c1O", "note": "[Example 37, p-[[5-[(4-acetyl-3-hydroxy-2-propylbenzyl)thio]-1,3,4-thiadiazol-2-yl]thiomethyl]benzoic acid]", "values": [{"measurement": "inhibition of the contractions induced by LTD4 (in words)", "setting": "[1]", "value": "potently inhibited"}, {"measurement": "IC50", "setting": "[1]", "value": "1.1e-08", "unit": "M"}, {"measurement": "IC50", "setting": "[2]", "value": "3.6e-09", "unit": "M"}, {"measurement": "ED50", "setting": "[3]", "value": 7, "unit": "mg/kg"}, {"measurement": "anti-leukotriene effect by oral route (in words)", "setting": "[3]", "value": "potent anti-leukotriene effect"}, {"measurement": "inhibition of LTD4-enhanced vascular permeability (in words)", "setting": "[3]", "value": "dose-dependently inhibited"}]}, {"smiles": "CCCc1c(CSc2nnc(SCc3ccc(CSCC(=O)O)cc3)s2)ccc(C(C)=O)c1O", "note": "[Example 43, [[p-[[[5-[(4-acetyl-3-hydroxy-2-propylbenzyl)thio]-1,3,4-thiadiazol-2-yl]thio]methyl]benzyl]thio]acetic acid]", "values": [{"measurement": "inhibition of the contractions induced by LTD4 (in words)", "setting": "[1]", "value": "potently inhibited"}, {"measurement": "IC50", "setting": "[1]", "value": "3.8e-09", "unit": "M"}, {"measurement": "IC50", "setting": "[2]", "value": "4.7e-09", "unit": "M"}]}, {"smiles": "CCCc1c(CSc2snc(O)c2C(=O)O)ccc(C(C)=O)c1O", "note": "[Example 44, 5-[(4-acetyl-3-hydroxy-2-propylbenzyl)thio]-3-hydroxy-4-isothiazolecarboxylic acid]", "values": [{"measurement": "inhibition of the contractions induced by LTD4 (in words)", "setting": "[1]", "value": "potently inhibited"}, {"measurement": "IC50", "setting": "[1]", "value": "1.9e-07", "unit": "M"}, {"measurement": "IC50", "setting": "[2]", "value": "4.5e-08", "unit": "M"}]}, {"smiles": "CCCc1c(CSc2nnc(SCc3ccc(CCC(=O)O)cc3)s2)ccc(C(C)=O)c1O", "note": "[Example 46, 3-[p-[[[5-[(4-acetyl-3-hydroxy-2-propylbenzyl)thio]-1,3,4-thiadiazol-2-yl]thio]methyl]phenyl]propionic acid]", "values": [{"measurement": "IC50", "setting": "[2]", "value": "3.1e-08", "unit": "M"}]}]}
